The values below come from patent US9815864B2, “Substituted nucleosides, nucleotides and analogs thereof” (Alios BioPharma, Inc., priority 2013, dated 2017).

For the test, the target named is Norovirus polymerase (NoVpol, genotype II) (Lordsdale virus, UniProt P54634). The test can be described thus: biochemical.
The mark [1] stands for this setting: 50 nM recombinant enzyme, 2.5 hours at 30° C., read-out: IC50.

Read-outs that look alike come from different tables or passages of the source. A value given as a limit tells only on which side of the number the result lay.

Norovirus polymerase (NoVpol, genotype II), sequence (P54634 1190-1699 limits assumed): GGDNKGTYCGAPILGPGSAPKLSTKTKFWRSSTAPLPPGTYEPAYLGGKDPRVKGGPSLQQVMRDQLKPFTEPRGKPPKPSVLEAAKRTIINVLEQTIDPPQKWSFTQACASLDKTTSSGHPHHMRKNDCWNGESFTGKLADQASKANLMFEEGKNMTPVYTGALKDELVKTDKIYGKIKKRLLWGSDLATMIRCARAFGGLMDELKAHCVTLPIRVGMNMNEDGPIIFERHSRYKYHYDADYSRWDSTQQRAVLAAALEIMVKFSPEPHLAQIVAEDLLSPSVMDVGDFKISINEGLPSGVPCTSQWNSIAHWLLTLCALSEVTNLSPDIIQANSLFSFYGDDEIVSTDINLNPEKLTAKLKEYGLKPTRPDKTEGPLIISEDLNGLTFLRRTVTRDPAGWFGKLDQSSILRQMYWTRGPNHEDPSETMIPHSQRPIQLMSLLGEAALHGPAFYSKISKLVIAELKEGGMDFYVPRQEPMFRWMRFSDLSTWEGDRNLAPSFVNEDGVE

What is called IC50 is the concentration that gives 50% inhibition. With `C#C[C@]1(F)[C@H](n2cnc3c(=O)[nH]c(N)nc32)O[C@](F)(COP(=O)(O)OP(=O)(O)OP(=O)(O)O)[C@H]1O` [Compound 237a], the 50% inhibitory concentration (IC50) under setting [1] is less than 1 µM.

For `C[C@]1(O)[C@H](n2ccc(=O)[nH]c2=O)O[C@](F)(COP(=O)(O)OP(=O)(O)OP(=O)(O)O)[C@H]1O` [Compound 122a], under setting [1], the IC50 was 1 to 10 µM.

As for `C=C[C@@]1(O)[C@H](O)[C@@](CF)(COP(=O)(O)OP(=O)(O)OP(=O)(O)O)O[C@H]1n1ccc(=O)[nH]c1=O` [Compound 348a], the concentration for half-maximal inhibition (IC50) under setting [1] was less than 1 µM.

For `C#C[C@@]1(O)[C@H](O)[C@@H](COP(=O)(O)OP(=O)(O)OP(=O)(O)O)O[C@H]1n1cnc2c(N)ncnc21` [Compound 289a], the IC50 under setting [1] is less than 1 µM.

As to `[N-]=[N+]=NC[C@]1(COP(=O)(O)OP(=O)(O)OP(=O)(O)O)O[C@@H](n2ccc(N)nc2=O)[C@H](F)[C@@H]1O` [Compound 115a], under setting [1], the IC50 lay within 1 to 10 µM.

Regarding `C#C[C@]1(F)[C@H](n2ccc(=O)[nH]c2=O)O[C@](F)(COP(=O)(O)OP(=O)(O)OP(=O)(O)O)[C@H]1O` [Compound 313a], under setting [1], the half-maximal inhibitory concentration (IC50) fell in the range of 1 to 10 µM.

With `Nc1ccn([C@@H]2O[C@](CF)(COP(=O)(O)OP(=O)(O)OP(=O)(O)O)[C@@H](O)[C@H]2F)c(=O)n1` [Compound 56c], the IC50 is less than 1 µM.

`C[C@]1(O)[C@H](n2cnc3c(=O)[nH]c(N)nc32)O[C@](F)(COP(=O)(O)OP(=O)(O)OP(=O)(O)O)[C@H]1F` [Compound 232a]: the IC50 under setting [1] is less than 1 µM.

As for `[N-]=[N+]=N[C@]1(COP(=O)(O)OP(=O)(O)OP(=O)(O)O)O[C@@H](n2cnc3c(=O)[nH]c(N)nc32)[C@H](O)[C@@H]1O` [Compound 268a], the half-maximal inhibitory concentration (IC50) under setting [1] is less than 1 µM.

As to `Cc1cn([C@@H]2O[C@](CCl)(COP(=O)(O)OP(=O)(O)OP(=O)(O)O)[C@@H](O)[C@H]2F)c(=O)nc1N` [Compound 97d], the IC50 under setting [1] is 1 to 10 µM.

For `N#C[C@]1(COP(=O)(O)OP(=O)(O)OP(=O)(O)O)O[C@@H](n2cnc3c(=O)[nH]c(N)nc32)[C@H](F)[C@@H]1O` [Compound 34e], under setting [1], the IC50 was less than 1 µM.

Regarding `N#C[C@@]1(n2ccc(=O)[nH]c2=O)O[C@](CF)(COP(=O)(O)OP(=O)(O)OP(=O)(O)O)[C@@H](O)[C@H]1O` [Compound 331a], under setting [1], the IC50 was less than 1 µM.

As to `C#C[C@@]1(n2cnc3c(=O)[nH]c(N)nc32)O[C@H](COP(=O)(O)OP(=O)(O)OP(=O)(O)O)[C@@H](O)[C@H]1F` [Compound 335a], under setting [1], the half-maximal inhibitory concentration (IC50) fell in the range of 1 to 10 µM.

Consider `CC#C[C@@]1(O)[C@H](O)[C@@](CF)(COP(=O)(O)OP(=O)(O)OP(=O)(O)O)O[C@H]1n1ccc(=O)[nH]c1=O` [Compound 349a], for which the half-maximal inhibitory concentration (IC50) under setting [1] is less than 1 µM.

Consider `C[C@@]1(O)[C@H](O)[C@@](CF)(COP(=O)(O)OP(=O)(O)OP(=O)(O)O)O[C@H]1n1ccc(N)nc1=O` [Compound 354a], for which the IC50 under setting [1] was less than 1 µM.

With `Nc1ccn([C@@H]2O[C@@](COP(=O)(O)OP(=O)(O)OP(=O)(O)O)(CC(F)F)[C@@H](O)[C@H]2F)c(=O)n1` [Compound 272a], the IC50 under setting [1] lay in the range of 1 to 10 µM.

Take `[N-]=[N+]=NC[C@]1(COP(=O)(O)OP(=O)(O)OP(=O)(O)O)O[C@@H](n2cnc3c(N)ncnc32)[C@H](F)[C@@H]1O` [Compound 212a]: the 50% inhibitory concentration (IC50) under setting [1] was in the range of 1 to 10 µM.

With `C#C[C@@]1(O)[C@H](O)[C@@](CF)(COP(=O)(O)OP(=O)(O)OP(=O)(O)O)O[C@H]1n1ccc(=O)[nH]c1=O` [Compound 219a], the IC50 under setting [1] was less than 1 µM.

For the molecule `CC[C@]1(COP(=O)(O)OP(=O)(O)OP(=O)(O)O)O[C@@H](n2ccc(=O)[nH]c2=O)[C@H](F)[C@@H]1O` [Compound 37a], the IC50 is 1 to 10 µM.

As to `Nc1ccn([C@@H]2O[C@@](COP(=O)(O)OP(=O)(O)OP(=O)(O)O)(C(F)F)[C@@H](O)[C@H]2F)c(=O)n1` [Compound 329a], the IC50 under setting [1] fell in the range of 1 to 10 µM.

`C[C@@]1(O)[C@H](O)[C@@](CF)(COP(=O)(O)OP(=O)(O)OP(=O)(O)O)O[C@H]1n1cnc2c(=O)[nH]c(N)nc21` [Compound 216a]: the half-inhibitory concentration (IC50) under setting [1] was less than 1 µM.

As to `C=C[C@]1(COP(=O)(O)OP(=O)(O)OP(=O)(O)O)O[C@@H](n2ccc(=O)[nH]c2=O)C(F)(F)[C@@H]1O` [Compound 221a], under setting [1], the concentration for half-maximal inhibition (IC50) lay in the range of 1 to 10 µM.

`C[C@@]1(Cl)[C@H](O)[C@@H](COP(=O)(O)OP(=O)(O)OP(=O)(O)O)O[C@H]1n1ccc(N)nc1=O` [Compound 262a]: the concentration for half-maximal inhibition (IC50) under setting [1] is 1 to 10 µM.

With `C[C@]1(Cl)[C@H](n2ccc(=O)[nH]c2=O)O[C@](F)(COP(=O)(O)OP(=O)(O)OP(=O)(O)O)[C@H]1O` [Compound 239a], the concentration for half-maximal inhibition (IC50) under setting [1] lay within 1 to 10 µM.

For the molecule `C[C@]1(COP(=O)(O)OP(=O)(O)OP(=O)(O)O)O[C@@H](n2cnc3c(=O)[nH]c(N)nc32)[C@H](O)[C@@H]1O` [Compound 334a], the IC50 under setting [1] was less than 1 µM.

Take `[N-]=[N+]=N[C@]1(COP(=O)(O)OP(=O)(O)OP(=O)(O)O)O[C@@H](n2ccc(=O)[nH]c2=O)[C@H](O)[C@@H]1O` [Compound 264a]: the 50% inhibitory concentration (IC50) under setting [1] was less than 1 µM.

For the molecule `C[C@]1(O)[C@H](n2ccc(N)nc2=O)O[C@](F)(COP(=O)(O)OP(=O)(O)OP(=O)(O)O)[C@H]1O` [Compound 238a], the IC50 under setting [1] is less than 1 µM.

`C[C@@]1(O)[C@H](O)[C@@](CF)(CO[P@](O)(=S)OP(=O)(O)OP(=O)(O)O)O[C@H]1n1ccc(=O)[nH]c1=O` [Compound 171a] yielded a concentration for half-maximal inhibition (IC50) of less than 1 µM.

With `C#C[C@]1(COP(=O)(O)OP(=O)(O)OP(=O)(O)O)O[C@@H](n2ccc(N)nc2=O)[C@H](F)[C@@H]1O` [Compound 36c], the IC50 under setting [1] lay in the range of 1 to 10 µM.

With `O=c1[nH]cnc2c1ncn2[C@@H]1O[C@](CCl)(COP(=O)(O)OP(=O)(O)OP(=O)(O)O)[C@@H](O)[C@H]1F` [Compound 98b], the IC50 under setting [1] was 1 to 10 µM.

In the case of `CO[C@]1(COP(=O)(O)OP(=O)(O)OP(=O)(O)O)O[C@@H](n2ccc(N)nc2=O)[C@H](F)[C@@H]1O` [Compound 36d], under setting [1], the concentration for half-maximal inhibition (IC50) fell in the range of 1 to 10 µM.

As to `C[C@]1(F)[C@H](n2ccc(=O)[nH]c2=O)O[C@](F)(COP(=O)(O)OP(=O)(O)OP(=O)(O)O)[C@H]1O` [Compound 242a], the IC50 under setting [1] fell in the range of 10 to 100 µM.

On to `C[C@]1(O)[C@H](n2cnc3c(N)ncnc32)O[C@](F)(COP(=O)(O)OP(=O)(O)OP(=O)(O)O)[C@H]1O` [Compound 333a], for which the half-inhibitory concentration (IC50) under setting [1] lay within 1 to 10 µM.

For `Nc1ncnc2c1ncn2[C@@H]1O[C@](CF)(COP(=O)(O)OP(=O)(O)OP(=O)(O)O)[C@@H](O)[C@H]1F` [Compound 98c], under setting [1], the IC50 was less than 1 µM.

As for `[N-]=[N+]=N[C@]1(COP(=O)(O)OP(=O)(O)OP(=O)(O)O)O[C@@H](n2ccc(=O)[nH]c2=O)[C@H](F)[C@@H]1O` [Compound 267a], the IC50 under setting [1] was less than 1 µM.

For the molecule `C#C[C@]1(O)[C@H](n2cnc3c(=O)[nH]c(N)nc32)O[C@](F)(COP(=O)(O)OP(=O)(O)OP(=O)(O)O)[C@H]1F` [Compound 233a], the IC50 under setting [1] is less than 1 µM.

Take `[N-]=[N+]=NC[C@]1(COP(=O)(O)OP(=O)(O)OP(=O)(O)O)O[C@@H](n2ccc(=O)[nH]c2=O)[C@H](F)[C@@H]1O` [Compound 114a]: under setting [1], the IC50 is less than 1 µM.

With `C[C@@]1(Cl)[C@H](O)[C@@](CF)(COP(=O)(O)OP(=O)(O)OP(=O)(O)O)O[C@H]1n1ccc(=O)[nH]c1=O` [Compound 306a], under setting [1], the IC50 lay within 10 to 100 µM.

As to `C#C[C@]1(COP(=O)(O)OP(=O)(O)OP(=O)(O)O)O[C@@H](n2cnc3c(=O)[nH]c(N)nc32)[C@H](F)[C@@H]1O` [Compound 34b], under setting [1], the IC50 is less than 1 µM.

For `[N-]=[N+]=N[C@]1(COP(=O)(O)OP(=O)(O)OP(=O)(O)O)O[C@@H](n2ccc(N)nc2=O)[C@@H](O)[C@@H]1O` [Compound 270a], the IC50 under setting [1] is less than 1 µM.

As for `C[C@@]1(Cl)[C@H](O)[C@@H](COP(=O)(O)OP(=O)(O)OP(=O)(O)O)O[C@H]1n1cnc2c(=O)[nH]c(N)nc21` [Compound 343a], under setting [1], the half-maximal inhibitory concentration (IC50) was less than 1 µM.

`C#C[C@@]1(O)[C@H](O)[C@@H](COP(O)(=S)OP(=O)(O)OP(=O)(O)O)O[C@H]1n1ccc(=O)[nH]c1=O` (stereo partly shown) [Compound 286a] gave an IC50 of 1 to 10 µM.

As to `C[C@]1(F)[C@H](n2cnc3c(=O)[nH]c(N)nc32)O[C@](F)(COP(=O)(O)OP(=O)(O)OP(=O)(O)O)[C@H]1O` [Compound 214a], under setting [1], the IC50 was less than 1 µM.

Turning to `C[C@]1(N=[N+]=[N-])[C@H](n2ccc(N)nc2=O)O[C@](F)(COP(=O)(O)OP(=O)(O)OP(=O)(O)O)[C@H]1O` [Compound 302a], under setting [1], the concentration for half-maximal inhibition (IC50) lay within 1 to 10 µM.

As to `C#C[C@]1(O)[C@H](n2cnc3c(=O)[nH]c(N)nc32)O[C@](F)(COP(=O)(O)OP(=O)(O)OP(=O)(O)O)[C@H]1O` [Compound 236a], the IC50 under setting [1] is less than 1 µM.

On to `C#C[C@@]1(O)[C@H](O)[C@@](CF)(COP(=O)(O)OP(=O)(O)OP(=O)(O)O)O[C@H]1n1cnc2c(N)ncnc21` [Compound 230a], for which the half-maximal inhibitory concentration (IC50) under setting [1] is less than 1 µM.

Take `C#C[C@@]1(O)[C@H](O)[C@@H](COP(=O)(O)OP(=O)(O)OP(=O)(O)O)O[C@H]1n1ccc2c(N)ncnc21` [Compound 292a]: the IC50 under setting [1] was less than 1 µM.

Turning to `[N-]=[N+]=N[C@]1(COP(=O)(O)OP(=O)(O)OP(=O)(O)O)O[C@@H](n2cnc3c(=O)[nH]c(N)nc32)[C@H](F)[C@@H]1O` [Compound 269a], the IC50 under setting [1] was less than 1 µM.

Regarding `C[C@]1(N)[C@H](n2ccc(N)nc2=O)O[C@](F)(COP(=O)(O)OP(=O)(O)OP(=O)(O)O)[C@H]1O` [Compound 303a], under setting [1], the IC50 lay in the range of 10 to 100 µM.

As to `N#C[C@@]1(n2ccc(N)nc2=O)O[C@](CF)(COP(=O)(O)OP(=O)(O)OP(=O)(O)O)[C@@H](O)[C@H]1O` [Compound 332a], the IC50 under setting [1] is less than 1 µM.

`Nc1ccn([C@@H]2O[C@](CF)(COP(=O)(O)OP(=O)(O)OP(=O)(O)O)[C@@H](O)[C@]2(O)CF)c(=O)n1` [Compound 355a]: under setting [1], the 50% inhibitory concentration (IC50) is less than 1 µM.

Consider `[N-]=[N+]=N[C@]1(COP(=O)(O)OP(=O)(O)OP(=O)(O)O)O[C@@H](n2ccc(N)nc2=O)[C@H](O)[C@@H]1O` [Compound 383a], for which the 50% inhibitory concentration (IC50) under setting [1] was less than 1 µM.

In the case of `C[C@]1(O)[C@H](n2ccc(N)nc2=O)O[C@](C)(COP(=O)(O)OP(=O)(O)OP(=O)(O)O)[C@H]1O` [Compound 340a], the 50% inhibitory concentration (IC50) under setting [1] is 1 to 10 µM.

In the case of `Nc1ccn([C@@H]2O[C@](CF)(COP(=O)(O)OP(=O)(O)OP(=O)(O)O)[C@@H](O)C2(F)F)c(=O)n1` [Compound 227a], the IC50 under setting [1] is 1 to 10 µM.

With `Nc1nc(=O)n([C@@H]2O[C@](CCl)(COP(=O)(O)OP(=O)(O)OP(=O)(O)O)[C@@H](O)[C@H]2F)cc1F` [Compound 97g], the half-inhibitory concentration (IC50) under setting [1] is 1 to 10 µM.
